Measured values: patent US5187169A, “Method for treatment of neurodegenerative diseases” (R. J. Reynolds Tobacco Company, priority 1992, dated 1993)

Key:
[1] = molecular target: high affinity nicotinic receptors; assay: Inhibition of L-[3H]nicotine binding to mouse brain membrane preparations; design: species or system Mice (DBA strain); conditions: mouse brain membranes, 2 hr incubation at 4° C., 10 nM L-[3H]nicotine, Ki calculated from IC50 by the method of Cheng et al.
Procedure: Mice (DBA strain) were maintained on a 12 hour light/dark cycle and were allowed free access to water and food supplied by Wayne Lab Blox, Madison, Wis. Animals used in the present studies were 60 to 90 days of age and weighed 20 to 25 g. Brain membrane preparations were obtained from pooled brain tissue of both males and females.
Mice were killed by cervical dislocation. Brains were removed and placed on an ice-cold platform. […] Protein was determined by the method of Lowry, et al., J. Biol. Chem., Vol. 193, pp. 265-275 (1951), using bovine serum albumin as the standard.
The binding of L-[^3 H]nicotine was measured using a modification of the method of Romano, et al., Science, Vol. 210, pp. 647-650 (1980) as described previously by Marks, et al., Mol. Pharmacol., Vol. 30, pp. 427-436 (1986). The binding of L-[^3 H]nicotine was measured using a 2 hr. incubation at 4° C. […] Nonspecific binding was determined by inclusion of 10 μM nonradioactive nicotine in the incubations. The inhibition of L-[^3 H]nicotine binding by test compounds was determined by including one of eight different concentrations of the test compound in the incubation. […] Inhibition constants (Ki values) were calculated from the IC50 values using the method of Cheng, et al., Biochem. Pharmacol., Vol. 22, pp. 3099-3108 (1973). […]

[2] = test system: synaptosomes from the striatal area of rat brain; assay: [3H]-dopamine release from rat striatal synaptosomes; assay type: cell-based, Sprague-Dawley rats; conditions: 0.2 ml of a 20 μM solution of ligand, relative to an equal concentration of (S)-(-)-nicotine
Procedure: Dopamine release was measured by preparing synaptosomes from the striatal area of rat brain obtained from Sprague-Dawley rats generally according to the procedures set forth by Nagy, et al., J. Neurochem., Vol. 43, pp. 1114-1123 (1984). Striata from 4 rats were homogenized in 2 ml of 0.32M sucrose buffered with 5 mM HEPES (pH 7.5), using a glass-teflon tissue grinder. The homogenate was diluted to 5 ml with additional homogenization solution and centrifuged at 1000×g for 10 min. This procedure was repeated on the new pellet and the resulting supernatant was centrifuged at 12,000×g for 20 min. […] Using this method, 30 to 90 percent of the dopamine was taken up into the synaptosomes, as determined by scintillation counting following filtration through glass fiber filters soaked with 0.5 percent polyethyleneimine. […] After the addition of a 0.2 ml of a 20 μM solution of ligand, the perfusate was collected into scintillation vials at 1 min. intervals and the dopamine released was quantified by scintillation counting. Peaks of radioactivity released above background were summed and the average basal release during that time was subtracted from the total. Release was expressed as a percentage of release obtained with an equal concentration of (S)-(-)-nicotine.

For `CN1C(=O)CC[C@H]1c1cccnc1` [cotinine], the Ki [1] was 3.9 µM and the “Dopamine Release” value [2] was 20 Percent release relative to (S.
